Source: the NIST ThermoML archive (doi:10.1021/je700260f)

Settings: Liquid, Vibrating tube method

FC(C(F)(F)F)C(F)(F)F [1,1,1,2,3,3,3-heptafluoropropane]
Settings	mass density [kg/m3]
303.14 K, 14797 kPa	1456.7
303.14 K, 14835 kPa	1456.8
303.14 K, 17693 kPa	1469.8
303.14 K, 21659 kPa	1486
303.14 K, 21693 kPa	1486.3
303.14 K, 21731 kPa	1486.4
303.14 K, 21764 kPa	1486.4
303.14 K, 21797 kPa	1486.6
303.14 K, 21835 kPa	1486.9
303.14 K, 21869 kPa	1486.9
303.14 K, 21906 kPa	1486.9
303.14 K, 21939 kPa	1487.2
303.14 K, 21972 kPa	1487.3
303.14 K, 22005 kPa	1487.5
303.14 K, 22039 kPa	1487.5
303.14 K, 22067 kPa	1487.7
303.14 K, 22096 kPa	1487.7
303.14 K, 22140 kPa	1487.9
303.14 K, 22178 kPa	1488.1
303.14 K, 22208 kPa	1488.1
303.14 K, 22251 kPa	1488.4
303.14 K, 22280 kPa	1488.4
303.14 K, 22361 kPa	1488.8
303.14 K, 22404 kPa	1488.9
303.14 K, 23559 kPa	1493.4
303.14 K, 23594 kPa	1493.4
303.14 K, 23621 kPa	1493.5
303.14 K, 23651 kPa	1493.8
303.14 K, 23681 kPa	1493.8
303.14 K, 26459 kPa	1504
303.14 K, 26487 kPa	1503.9
303.14 K, 26573 kPa	1504.3
303.14 K, 26602 kPa	1504.5
303.14 K, 26627 kPa	1504.5
303.14 K, 26661 kPa	1504.7
303.14 K, 26685 kPa	1504.6
303.14 K, 27097 kPa	1506
303.14 K, 27130 kPa	1506.1
303.14 K, 27159 kPa	1506.3
303.14 K, 27188 kPa	1506.5
303.14 K, 27217 kPa	1506.5
303.14 K, 27398 kPa	1507.2
303.14 K, 27427 kPa	1507.2
303.14 K, 27494 kPa	1507.5
303.14 K, 27528 kPa	1507.5
303.14 K, 27562 kPa	1507.7
303.14 K, 27605 kPa	1507.8
303.14 K, 27634 kPa	1507.9
303.14 K, 27671 kPa	1508
303.14 K, 27705 kPa	1508.1
303.14 K, 27735 kPa	1508.3
303.14 K, 27769 kPa	1508.4
303.14 K, 27803 kPa	1508.5
303.14 K, 27840 kPa	1508.4
303.14 K, 27861 kPa	1508.6
303.14 K, 27887 kPa	1508.9
303.14 K, 27917 kPa	1508.9
303.14 K, 27946 kPa	1509
303.14 K, 27976 kPa	1509.1
303.14 K, 28006 kPa	1509.2
303.14 K, 28040 kPa	1509.3
303.14 K, 28065 kPa	1509.5
303.14 K, 28095 kPa	1509.5
303.14 K, 28120 kPa	1509.6
303.14 K, 28158 kPa	1509.6
303.14 K, 28184 kPa	1509.9
303.14 K, 28206 kPa	1510
303.14 K, 28241 kPa	1510
303.14 K, 28271 kPa	1510.1
303.14 K, 28300 kPa	1510.2
303.14 K, 28330 kPa	1510.4
303.14 K, 28355 kPa	1510.5
303.14 K, 28394 kPa	1510.6
303.14 K, 31947 kPa	1522.2
303.14 K, 31984 kPa	1522.4
303.14 K, 32012 kPa	1522.5
303.14 K, 32053 kPa	1522.5
303.14 K, 32086 kPa	1522.6
303.14 K, 32123 kPa	1522.8
303.14 K, 32155 kPa	1522.9
303.14 K, 32187 kPa	1522.9
303.14 K, 32215 kPa	1523
303.14 K, 32251 kPa	1523.2
303.14 K, 32280 kPa	1523.2
303.14 K, 32322 kPa	1523.4
303.14 K, 32345 kPa	1523.3
303.14 K, 32382 kPa	1523.4
303.14 K, 32418 kPa	1523.7
303.14 K, 32449 kPa	1523.8
303.14 K, 32481 kPa	1523.9
303.14 K, 32513 kPa	1524
303.14 K, 32542 kPa	1524.1
303.14 K, 32574 kPa	1524.1
303.14 K, 32603 kPa	1524.3
303.14 K, 32646 kPa	1524.3
303.14 K, 32674 kPa	1524.4
303.14 K, 32713 kPa	1524.6
303.14 K, 32736 kPa	1524.6
303.14 K, 32764 kPa	1524.8
303.14 K, 32792 kPa	1524.9
303.14 K, 32830 kPa	1524.9
303.14 K, 32858 kPa	1525.1
303.14 K, 32887 kPa	1525.2
303.14 K, 32920 kPa	1525.2
303.14 K, 32949 kPa	1525.4
303.14 K, 32977 kPa	1525.5
303.14 K, 33020 kPa	1525.5
303.14 K, 33054 kPa	1525.6
303.14 K, 33098 kPa	1525.7
303.14 K, 33133 kPa	1525.9
303.14 K, 33172 kPa	1526
303.14 K, 33200 kPa	1526.1
303.14 K, 33239 kPa	1526.2
303.14 K, 33268 kPa	1526.3
303.14 K, 33306 kPa	1526.5
303.14 K, 33345 kPa	1526.6
303.14 K, 33378 kPa	1526.7
303.14 K, 33413 kPa	1526.7
303.14 K, 33457 kPa	1526.9
303.14 K, 33496 kPa	1527.1
303.14 K, 33537 kPa	1527.1
303.14 K, 33567 kPa	1527.3
303.14 K, 33615 kPa	1527.5
303.14 K, 33644 kPa	1527.5
303.14 K, 33683 kPa	1527.6
303.14 K, 33717 kPa	1527.8
303.14 K, 33758 kPa	1527.8
303.14 K, 33793 kPa	1527.9
303.14 K, 33838 kPa	1528
303.14 K, 33877 kPa	1528.2
303.14 K, 33912 kPa	1528.4
303.14 K, 34122 kPa	1529
303.14 K, 34158 kPa	1529
303.14 K, 34201 kPa	1529.1
303.14 K, 34250 kPa	1529.3
303.14 K, 34300 kPa	1529.4
303.14 K, 34356 kPa	1529.6
303.14 K, 34400 kPa	1529.8
303.14 K, 34442 kPa	1529.9
303.14 K, 34476 kPa	1529.9
303.14 K, 34501 kPa	1530.1
303.14 K, 34513 kPa	1530
303.14 K, 34522 kPa	1530.1
303.14 K, 34526 kPa	1530.1
303.15 K, 540 kPa	1366.5
303.15 K, 560 kPa	1366.8
303.15 K, 580 kPa	1367
303.15 K, 600 kPa	1367.1
303.15 K, 630 kPa	1367.3
303.15 K, 650 kPa	1367.5
303.15 K, 680 kPa	1367.6
303.15 K, 700 kPa	1368
303.15 K, 720 kPa	1368.1
303.15 K, 740 kPa	1368.3
303.15 K, 750 kPa	1368.5
303.15 K, 780 kPa	1368.7
303.15 K, 800 kPa	1368.9
303.15 K, 830 kPa	1369.2
303.15 K, 850 kPa	1369.3
303.15 K, 870 kPa	1369.5
303.15 K, 900 kPa	1369.8
303.15 K, 920 kPa	1369.9
303.15 K, 950 kPa	1370.1
303.15 K, 980 kPa	1370.4
303.15 K, 1000 kPa	1370.7
303.15 K, 1030 kPa	1370.9
303.15 K, 1060 kPa	1371.1
303.15 K, 1090 kPa	1371.4
303.15 K, 1110 kPa	1371.6
303.15 K, 1139 kPa	1371.8
303.15 K, 1161 kPa	1372
303.15 K, 1177 kPa	1372.1
303.15 K, 1199 kPa	1372.3
303.15 K, 1213 kPa	1372.5
303.15 K, 1250 kPa	1372.8
303.15 K, 1267 kPa	1372.9
303.15 K, 1284 kPa	1373.1
303.15 K, 1299 kPa	1373.1
303.15 K, 1317 kPa	1373.4
303.15 K, 1339 kPa	1373.5
303.15 K, 1354 kPa	1373.7
303.15 K, 1374 kPa	1373.9
303.15 K, 1395 kPa	1374.1
303.15 K, 1417 kPa	1374.2
303.15 K, 1440 kPa	1374.4
303.15 K, 1464 kPa	1374.6
303.15 K, 1481 kPa	1374.7
303.15 K, 1505 kPa	1375
303.15 K, 1522 kPa	1375
303.15 K, 1548 kPa	1375.3
303.15 K, 1568 kPa	1375.5
303.15 K, 1590 kPa	1375.6
303.15 K, 1608 kPa	1375.8
303.15 K, 1631 kPa	1375.9
303.15 K, 1645 kPa	1376.1
303.15 K, 1666 kPa	1376.5
303.15 K, 1689 kPa	1376.4
303.15 K, 1706 kPa	1376.6
303.15 K, 1732 kPa	1376.9
303.15 K, 1794 kPa	1377.4
303.15 K, 1812 kPa	1377.6
303.15 K, 1859 kPa	1377.8
303.15 K, 1883 kPa	1377.9
303.15 K, 1903 kPa	1378.3
303.15 K, 1924 kPa	1378.4
